For 1 compound, IC50 results are on record in ChEMBL document CHEMBL1127660, “Isolation, structural determination, and biological activity of 6 alpha-hydroxytaxol, the principal human metabolite of taxol” (J Med Chem, 1994).

One experiment has as its system U-937. Description: The compound was tested for inhibition concentration against U-937 cell line. As to conditions: Homo sapiens. Format: functional, cell-based.
A further experiment relates to MOLT-4. As to the kind of experiment: The compound was tested for inhibition concentration against MOLT-4 cell line. Format: functional, cell-based. The following applies: Homo sapiens.

The structures appear in SMILES notation.

On to `CC(=O)O[C@H]1C(=O)[C@@]2(C)[C@H]([C@H](OC(=O)c3ccccc3)[C@]3(O)C[C@H](OC(=O)[C@H](O)[C@@H](NC(=O)c4ccccc4)c4ccccc4)C(C)=C1C3(C)C)[C@]1(OC(C)=O)CO[C@@H]1C[C@@H]2O` [PACLITAXEL], for which the IC50 (commonly the concentration that gives 50% inhibition) was determined as 1 nM in the experiment on U-937 and 1.6 nM in the experiment on MOLT-4.
